Structures are written as SMILES. Read-outs that look alike come from different tables or passages of the source.

The text below walks through data of US10682333B2, “Composition for inhibiting formation of SNARE complex, containing myricetin derivatives” (RESEARCH & BUSINESS FOUNDATION SUNGKYUNKWAN UNIVERSITY, priority 2015, dated 2020).

For data set [1], the system named is PCl2 cells. As to the kind of experiment: [3H] norepinephrine release from PCl2 cells (liquid scintillation). The format is cell-based. Particulars: for inhibition of release of [3H] norepinephrine: Krebs' buffer with high K+. Here is the method:
The first method is as follows. […] After thorough washing, the PCl2 cells were washed four times with the culture medium for 15 minutes each. […] The medium was replaced with Krebs' buffer with high K^+, followed by culturing for 10 minutes, to collect samples. The collected samples were subjected to radiation measurement using a liquid scintillation counter.

Data set [2] deals with PCl2 cells. The experiment in a line: Intracellular bioconversion into myricetin in PCl2 cells (HPLC). The format is in vitro ADME. Particulars: within 1 hour. On the procedure:
A rate of bioconversion of the myricetin derivative prepared by acylation with acetic acid into myricetin in vivo was determined.
After the cells were completely washed, the cells were treated with trypsin to collect trypsin-attached cells, and trypsin was removed therefrom to obtain only pure cells. The cells were suspended in 100 μl of tetrahydrofuran, followed by disruption through sonication, and then only tetrahydrofuran in which materials in the cells were lysed was collected. Subsequently, only myricetin in the recovered purified liquid was analyzed by high-performance liquid chromatography (HPLC) to examine whether the myricetin derivative prepared by acylation using acetic acid was converted into myricetin, and the results thereof are illustrated in FIG. 15.

Data set [3] can be described thus: Examination of color of myricetin derivatives by degree of acylation. The format is physicochemical. Particulars: degree of acylation by palmitic acid. From the text: In the present experimental example, whether a disadvantage of myricetin that a too dark intrinsic color thereof causes the skin to be stained can be addressed through making changes in properties using myricetin derivatives according to the present invention was examined.
As a result, it was observed that as a degree to which a hydroxyl group of myricetin was acylated by palmitic acid, i.e., the degree of acylation, increased, colors of the myricetin derivatives were changed, unlike conventional myricetin. In particular, it was observed that the myricetin derivative obtained in Example 3, in which one hydroxyl group of myricetin was acylated by palmitic acid, had yellow color, which is an intrinsic color of myricetin (see FIG. 12A), whereas the myricetin derivative obtained in Example 4, in which all hydroxyl groups of myricetin were acylated by palmitic acid, had white color (see FIG. 12B).

Data set [4] can be described thus: Solubility in canola oil and mineral oil. It is filed as physicochemical. On the procedure:
In the present experimental example, in view of the fact that in Example 4, myricetin underwent various changes in properties during synthesis of a myricetin derivative, in which all hydroxyl groups of myricetin were acylated by palmitic acid, the solubilities of the myricetin derivative in an organic solvent, or in a commercially available liposoluble cosmetic, food product, or the like were measured.
In particular, the myricetin derivative was dissolved in canola oil and mineral oil at a ratio of 1 mg/l ml. The results thereof are illustrated in FIG. 13.

The target in data set [5] is T1, SNARE complex (Syntaxin 1A-CFP, VAMP2-YFP) in PCl2 cells (UniProt P60881+P63027+Q16623).
T1 construct: expressed in transfected cells
As to the kind of experiment: In vivo (cell) SNARE function screen: FRET C and NPY release in PCl2 cells. The format is cell-based.

The target in data set [6] is T2, SNARE complexes (Homo sapiens, UniProt P60880+P63027+Q16623). The experiment in a line: Immunoblotting of SDS-resistant SNARE complexes, in vivo. It is filed as cell-based. As to conditions: SDS-PAGE. The source says:
(§1) The above characteristics were clearly confirmed by immunoblotting of SNARE complexes (see FIG. 2B). SNARE complexes are known to have SDS-resistance, and based on these characteristics, immunoblotting using SDS-PAGE is generally used to identify the formation of SNARE complexes.
(In general: In western blotting, separated proteins are transferred to a membrane and probed.)

The nature of data set [7]: Light stability under UV, color observed with the naked eye over time. As to conditions: UV lamp. It is filed as physicochemical. On the procedure: It was examined whether myricetin, and laricitrin and syringetin, which are naturally occurring myricetin derivatives, were denatured when exposed to UV. First, each myricetin derivative (MP, 1 mg/1.34 g), prepared by reacting myricetin (M, 1 mg/1.34 g) and palmitic acid, was uniformly mixed in a commercially available sunblock cream (Kolmar Korea, NoTS UV protection sunscreen cream, 1.34 g), and the mixture was applied on a cover glass, followed by irradiation for 24 hours with UV having an intensity of 253.7 nM using a UV lamp.

In data set [8] the target is SNARE-mediated membrane fusion (Homo sapiens, UniProt P60880+P63027+Q16623). As to the kind of experiment: In vitro membrane fusion by FRET on dye-labelled lipid bilayer membrane. It is filed as biochemical. Particulars: artificial lipid bilayer membrane.
The target in data set [9] is T2, SNARE complexes. The experiment in a line: Immunoblotting of SDS-resistant SNARE complexes, in vitro. The format is biochemical. As to conditions: SDS-PAGE.
Description: as §1

Data set [10] is described as follows: Light stability under UV, DMSO solution mixed with zinc oxide. It is filed as physicochemical. As to conditions: 1 mg/ml DMSO with zinc oxide, UV 2 hours. Here is the method: First, 1 mg of each of myricetin and the myricetin derivatives were dissolved in 1 ml of dimethyl sulfoxide (DMSO), followed by mixing with zinc oxide having high reactivity with a hydroxyl group of myricetin. The resulting mixed solution was applied, as 100 μl drops, on 3M paper, and irradiated for 2 hours with UV light having an intensity of 253.7 nM using a UV lamp. As negative controls, untreated DMSO and a mixed solution of untreated DMSO and zinc oxide were used.

T1 sequence (Q16623 whole entry): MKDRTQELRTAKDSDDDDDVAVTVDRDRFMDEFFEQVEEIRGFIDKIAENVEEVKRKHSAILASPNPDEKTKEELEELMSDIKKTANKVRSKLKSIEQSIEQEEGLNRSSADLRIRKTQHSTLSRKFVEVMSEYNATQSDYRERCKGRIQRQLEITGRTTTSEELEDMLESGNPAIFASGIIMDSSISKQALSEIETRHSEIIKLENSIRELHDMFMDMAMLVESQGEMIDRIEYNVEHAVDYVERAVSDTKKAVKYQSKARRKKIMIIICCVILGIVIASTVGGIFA
T1 sequence (P63027 whole entry): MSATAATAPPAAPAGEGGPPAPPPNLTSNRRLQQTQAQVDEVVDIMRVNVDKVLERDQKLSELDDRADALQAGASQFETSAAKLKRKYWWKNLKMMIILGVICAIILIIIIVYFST
T1 sequence (P60881 whole entry): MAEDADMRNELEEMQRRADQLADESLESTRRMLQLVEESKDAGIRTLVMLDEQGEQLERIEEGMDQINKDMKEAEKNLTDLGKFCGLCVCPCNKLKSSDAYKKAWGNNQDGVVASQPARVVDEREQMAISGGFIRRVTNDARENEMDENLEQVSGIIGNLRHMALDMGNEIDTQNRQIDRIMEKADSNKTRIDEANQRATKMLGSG
T2 sequence (Q16623 whole entry): as the sequence (Q16623 whole entry) above
T2 sequence (P60880 whole entry): as the sequence (P60881 whole entry) above
T2 sequence (P63027 whole entry): as the sequence (P63027 whole entry) above
SNARE-mediated membrane fusion, sequence (Q16623 whole entry, the tested form may be a part): as the sequence (Q16623 whole entry) above
SNARE-mediated membrane fusion, sequence (P60880 whole entry, the tested form may be a part): as the sequence (P60881 whole entry) above
SNARE-mediated membrane fusion, sequence (P63027 whole entry, the tested form may be a part): as the sequence (P63027 whole entry) above

Regarding `CC(=O)Oc1cc(OC(C)=O)c2c(=O)c(OC(C)=O)c(-c3cc(OC(C)=O)c(OC(C)=O)c(OC(C)=O)c3)oc2c1` [MA], in the data set on PCl2 cells [1], the “inhibition of release of [3H] norepinephrine” value (from here on “inhibition”) is “comparable or slightly better activity”. The “fraction bioconverted into myricetin” value with PCl2 cells [2] is given as 3%.

Regarding `CCCCCCCCCCCCCCCC(=O)Oc1cc(OC(=O)CCCCCCCCCCCCCCC)c2c(=O)c(OC(=O)CCCCCCCCCCCCCCC)c(-c3cc(OC(=O)CCCCCCCCCCCCCCC)c(OC(=O)CCCCCCCCCCCCCCC)c(OC(=O)CCCCCCCCCCCCCCC)c3)oc2c1` [MP], the “color of the substance” value in data set [3] is “white color”. In [4], the “solubility in canola oil” value was “liposoluble” and the “solubility in mineral oil” value is “liposoluble”.

On to `COc1cc(O)c2c(=O)c(OC)c(-c3cc(OC)c(OC)c(OC)c3)oc2c1` [combretol], for which, in [5], the “in vivo functions (FRET C, NPY release)” value is reported as 40-45 % of the control. Besides, the “formation of SNARE complexes in vivo” value on SNARE complexes [6] is on record as “decreasing tendency only in vivo”.

Consider `COc1cc(-c2oc3cc(O)cc(O)c3c(=O)c2O)cc(O)c1O` [laricitrin], for which the “in vivo functions (FRET C, NPY release)” value in data set [5] is recorded as 40-45 % of the control. Further, the “formation of SNARE complexes in vivo” value on SNARE complexes [6] was “decreasing tendency only in vivo”. Moreover, the “activity of inhibiting [3H] norepinephrine release compared to conventional myricetin” value with PCl2 cells [1] (20 μM) is reported as “at least two-fold improved activity”. The “inhibition” value with PCl2 cells [1] is on record as “highest reactivity”. Besides, in data set [7], the “color change on UV irradiation compared to myricetin” value is reported as “did not show clear color changes” and the “time after UV irradiation at which color turned brown” value (shortened to “time … at which color turned brown”) was determined as 60 min.

Regarding `O=c1c(O)c(-c2cc(O)c(O)c(O)c2)oc2cc(O)cc(O)c12` [myricetin], the “in vivo functions (FRET C, NPY release)” value in [5] (PCl2 cells) is ≤ 40 % of the control. Moreover, the “in vitro functions (membrane fusion)” value in [8] is listed as ≤ 40 % of the control. At SNARE complexes [6], the “formation of SNARE complexes in vivo” value is recorded as “decreasing tendency”. Also, the “formation of SNARE complexes in vitro” value on SNARE complexes [9] is given as “decreasing tendency”. Further, in the data set on PCl2 cells [1], the “inhibition” value was “concentration-dependent manner”. Also, the “color change on UV exposure” value in data set [10] is “color changes over time”. In [4] (1 mg/1 ml), the “solubility in canola oil” value is “insoluble” and the “solubility in mineral oil” value is “insoluble”. In data set [7], the “time … at which color turned brown” value amounted to 5 min and the “time after UV irradiation at which color turned dark brown (complete oxidation)” value came out at 30 min.

As for `COc1cc(-c2oc3cc(O)cc(O)c3c(=O)c2O)cc(OC)c1O` [syringetin], the “formation of SNARE complexes in vivo” value at SNARE complexes [6] is listed as “decreasing tendency only in vivo”. In addition, in data set [7], the “color change on UV irradiation compared to myricetin” value is listed as “did not show clear color changes” and the “time … at which color turned brown” value worked out at 240 min.
